Assay results reported in ChEMBL document CHEMBL3046079, “Synthesis, herbicidal activity, and mode of action of IR 5790” (J Agric Food Chem, 2001).
≈ marks a conversion by molar mass, not a printed value.

Legend:
Solanum nigrum = experiment: Pre-emergence herbicidal activity against Solanum nigrum (black nightshade) assessed as injury at 150 g/ha applied at 24 hr post-sowing measured after 28 days relative to control; assay type: functional
Stellaria media [1] = experiment: Pre-emergence herbicidal activity against Stellaria media assessed as injury at 50 g/ha applied at 24 hr post-sowing measured after 28 days relative to control; assay type: functional
Phalaris arundinacea = experiment: Pre-emergence herbicidal activity against Phalaris arundinacea assessed as injury at 50 g/ha applied at 24 hr post-sowing measured after 28 days relative to control; assay type: functional
Zea mays = experiment: Phytotoxicity against Zea mays (maize) assessed as injury at 150 g/ha applied as pre-emergent treatment at 24 hr post-sowing measured after 28 days relative to control; assay type: organism-based; details: in vivo, other, 672 h
Portulaca oleracea = experiment: Pre-emergence herbicidal activity against Portulaca oleracea assessed as injury at 50 g/ha applied at 24 hr post-sowing measured after 28 days relative to control; assay type: functional
Alopecurus myosuroides = experiment: Post-emergence herbicidal activity against Alopecurus myosuroides assessed as injury at 5 g/ha applied at 15 days post-sowing measured after 15 days relative to control; assay type: functional
Echinochloa crus-galli [2] = experiment: Pre-emergence herbicidal activity against Echinochloa crus-galli (barnyard grass) assessed as injury at 150 g/ha applied at 24 hr post-sowing measured after 28 days relative to control; assay type: functional
Beta vulgaris [3] = experiment: Phytotoxicity against Beta vulgaris assessed as injury at 50 g/ha applied as pre-emergent treatment at 24 hr post-sowing measured after 28 days relative to control; assay type: organism-based; details: in vivo, other, 672 h
Beta vulgaris [4] = experiment: Phytotoxicity against Beta vulgaris assessed as injury at 150 g/ha applied as post-emergent treatment at 15 days post-sowing measured after 15 days relative to control; assay type: organism-based; details: in vivo, other, 360 h
Chenopodium album [5] = experiment: Post-emergence herbicidal activity against Chenopodium album assessed as injury at 15 g/ha applied at 15 days post-sowing measured after 15 days relative to control; assay type: functional
Persicaria maculosa [6] = experiment: Post-emergence herbicidal activity against Persicaria maculosa assessed as injury at 15 g/ha applied at 15 days post-sowing measured after 15 days relative to control; assay type: functional
Stellaria media [7] = experiment: Pre-emergence herbicidal activity against Stellaria media assessed as injury at 150 g/ha applied at 24 hr post-sowing measured after 28 days relative to control; assay type: functional
Persicaria maculosa [8] = experiment: Post-emergence herbicidal activity against Persicaria maculosa assessed as injury at 150 g/ha applied at 15 days post-sowing measured after 15 days relative to control; assay type: functional
Triticum aestivum = experiment: Phytotoxicity against Triticum aestivum (wheat) assessed as injury at 150 g/ha applied as post-emergent treatment at 15 days post-sowing measured after 15 days relative to control; assay type: organism-based; details: in vivo, other, 360 h
Chenopodium album [9] = experiment: Post-emergence herbicidal activity against Chenopodium album assessed as injury at 5 g/ha applied at 15 days post-sowing measured after 15 days relative to control; assay type: functional
Setaria viridis [10] = experiment: Pre-emergence herbicidal activity against Setaria viridis (green foxtail) assessed as injury at 150 g/ha applied at 24 hr post-sowing measured after 28 days relative to control; assay type: functional
Calystegia sepium [11] = experiment: Post-emergence herbicidal activity against Calystegia sepium assessed as injury at 150 g/ha applied at 15 days post-sowing measured after 15 days relative to control; assay type: functional
Sida spinosa = experiment: Post-emergence herbicidal activity against Sida spinosa assessed as injury at 150 g/ha applied at 15 days post-sowing measured after 15 days relative to control; assay type: functional
Oryza sativa = experiment: Phytotoxicity against Oryza sativa (rice) assessed as injury at 50 g/ha applied as post-emergent treatment at 15 days post-sowing measured after 15 days relative to control; assay type: organism-based; details: in vivo, other, 360 h
Avena fatua [12] = experiment: Post-emergence herbicidal activity against Avena fatua assessed as injury at 50 g/ha applied at 15 days post-sowing measured after 15 days relative to control; assay type: functional
Galium aparine = experiment: Post-emergence herbicidal activity against Galium aparine assessed as injury at 50 g/ha applied at 15 days post-sowing measured after 15 days relative to control; assay type: functional
Echinochloa crus-galli [13] = experiment: Post-emergence herbicidal activity against Echinochloa crus-galli (barnyard grass) assessed as injury at 15 g/ha applied at 15 days post-sowing measured after 15 days relative to control; assay type: functional
Veronica persica = experiment: Post-emergence herbicidal activity against Veronica persica assessed as injury at 150 g/ha applied at 15 days post-sowing measured after 15 days relative to control; assay type: functional
Persicaria maculosa [14] = experiment: Post-emergence herbicidal activity against Persicaria maculosa assessed as injury at 50 g/ha applied at 15 days post-sowing measured after 15 days relative to control; assay type: functional
Sorghum bicolor = experiment: Post-emergence herbicidal activity against Sorghum bicolor assessed as injury at 150 g/ha applied at 15 days post-sowing measured after 15 days relative to control; assay type: functional
[15] = Solubility of the compound in organis solvent; assay type: physicochemical
Glycine max = experiment: Phytotoxicity against Glycine max (soybean) assessed as injury at 15 g/ha applied as post-emergent treatment at 15 days post-sowing measured after 15 days relative to control; assay type: organism-based; details: in vivo, other, 360 h
Panicum dichotomiflorum = experiment: Pre-emergence herbicidal activity against Panicum dichotomiflorum assessed as injury at 150 g/ha applied at 24 hr post-sowing measured after 28 days relative to control; assay type: functional
Papaver rhoeas = experiment: Pre-emergence herbicidal activity against Papaver rhoeas assessed as injury at 150 g/ha applied at 24 hr post-sowing measured after 28 days relative to control; assay type: functional
[16] = Aqueous solubility of the compound; assay type: physicochemical; details: water
Xanthium strumarium = experiment: Pre-emergence herbicidal activity against Xanthium strumarium (cocklebur) assessed as injury at 150 g/ha applied at 24 hr post-sowing measured after 28 days relative to control; assay type: functional
Stellaria media [17] = experiment: Post-emergence herbicidal activity against Stellaria media assessed as injury at 50 g/ha applied at 15 days post-sowing measured after 15 days relative to control; assay type: functional
Calystegia sepium [18] = experiment: Post-emergence herbicidal activity against Calystegia sepium assessed as injury at 5 g/ha applied at 15 days post-sowing measured after 15 days relative to control; assay type: functional
Setaria viridis [19] = experiment: Post-emergence herbicidal activity against Setaria viridis (green foxtail) assessed as injury at 50 g/ha applied at 15 days post-sowing measured after 15 days relative to control; assay type: functional
Ammi majus [20] = experiment: Pre-emergence herbicidal activity against Amni maius assessed as injury at 50 g/ha applied at 24 hr post-sowing measured after 28 days relative to control; assay type: functional
Avena fatua [21] = experiment: Pre-emergence herbicidal activity against Avena fatua assessed as injury at 150 g/ha applied at 24 hr post-sowing measured after 28 days relative to control; assay type: functional
Matricaria chamomilla = experiment: Pre-emergence herbicidal activity against Matricaria chamomilla assessed as injury at 50 g/ha applied at 24 hr post-sowing measured after 28 days relative to control; assay type: functional
Calystegia sepium [22] = experiment: Pre-emergence herbicidal activity against Calystegia sepium assessed as injury at 150 g/ha applied at 24 hr post-sowing measured after 28 days relative to control; assay type: functional
Ammi majus [23] = experiment: Pre-emergence herbicidal activity against Amni maius assessed as injury at 150 g/ha applied at 24 hr post-sowing measured after 28 days relative to control; assay type: functional
Amaranthus retroflexus = experiment: Pre-emergence herbicidal activity against Amaranthus retroflexus assessed as injury at 150 g/ha applied at 24 hr post-sowing measured after 28 days relative to control; assay type: functional

`C#CCOc1cc(-n2nc(C(C)(C)C)sc2=O)c(Cl)cc1Cl` showed an Activity (Solanum nigrum) of 70%, an Activity (Stellaria media [1]) of 0% and an Activity (Phalaris arundinacea) of 0%. It also gave an Activity (Zea mays) of 0%, an Activity (Portulaca oleracea) of 70% and an Activity (Alopecurus myosuroides) of 0%. The Activity (Echinochloa crus-galli [2]) was 70%, the Activity (Beta vulgaris [3]) was 10% and the Activity (Beta vulgaris [4]) was 90%. For the same compound, the Activity (Chenopodium album [5]) was 70%, the Activity (Persicaria maculosa [6]) was 70% and the Activity (Stellaria media [7]) was 30%. The Activity (Persicaria maculosa [8]) was 90%, the Activity (Triticum aestivum) was 50% and the Activity (Chenopodium album [9]) was 10%. It also gave an Activity (Setaria viridis [10]) of 70%, an Activity (Calystegia sepium [11]) of 90% and an Activity (Sida spinosa) of 70%. It also gave an Activity (Oryza sativa) of 0%, an Activity (Avena fatua [12]) of 0% and an Activity (Galium aparine) of 30%. It also gave an Activity (Echinochloa crus-galli [13]) of 0%, an Activity (Veronica persica) of 50% and an Activity (Persicaria maculosa [14]) of 90%. For the same compound, the Activity (Sorghum bicolor) was 10%, the solubility [15] was over 250000 µg/mL and the Activity (Glycine max) was 0%. It also gave an Activity (Panicum dichotomiflorum) of 90%, an Activity (Papaver rhoeas) of 90% and a solubility [16] of 1.1 µg/mL (≈ 3.08 µM). For the same compound, the Activity (Xanthium strumarium) was 0%, the Activity (Stellaria media [17]) was 0% and the Activity (Calystegia sepium [18]) was 10%. It also gave an Activity (Setaria viridis [19]) of 10%, an Activity (Ammi majus [20]) of 0% and an Activity (Avena fatua [21]) of 0%. It also gave an Activity (Matricaria chamomilla) of 0%, an Activity (Calystegia sepium [22]) of 0% and an Activity (Ammi majus [23]) of 0%. It also gave an Activity (Amaranthus retroflexus) of 90%.
